Laboratory results published in the supplement of paper PMC10949913.

How the values were obtained:
Conditions in all cases: 48 h
NCI-H295R [1] = experiment: AC50 viability; higher = less potent
In short: (§1)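 Three adrenocortical carcinoma cell lines in 1,536-well plates received 23 nL of each library compound at 11 concentrations and were read with CellTiter-Glo after 48 h, with 15 minutes at room temperature before measuring luminescence. Vehicle and empty-well controls served for per-plate normalisation. AC50 and area under the curve were extracted from fitted concentration-response curves, discarding all curve classes other than inhibitory or non-responding.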

NCI-H295R [2] = experiment: area under concentration-response curve (viability) (AUC (a.u.)); higher = less active
In short: as §1

CU-ACC1 = experiment: as above
In short: as §1

CU-ACC2 = experiment: as above
In short: as §1

Compound	AC50 viability (NCI-H295R [1]) [µM]	area under concentration-response curve (NCI-H295R [2])	area under concentration-response curve (CU-ACC1)	area under concentration-response curve (CU-ACC2)
Clc1ccc(CCC(Cn2ccnc2)Sc2c(Cl)cccc2Cl)cc1 (stereo not drawn)	33.2	491		
Cc1cncc2cccc([S+](=O)([O-])N3CCCN(C(=O)CN)C[C@@H]3C)c12	16.6	433	465	
CCCCc1oc2ccccc2c1C(=O)c1cc(I)c(OCCN(CC)CC)c(I)c1	23.5	479		
CCOc1cc2c(c(F)c1OCC)C(=N)N(CC(=O)c1cc(N3CCOCC3)c(OC)c(C(C)(C)C)c1)C2	20.9	492		
COc1ccc(C(=O)c2c(C)n(CCN3CCOCC3)c3cc(I)ccc23)cc1	8.33	392	317	
COC(=O)Nc1nc2cc([S+]([O-])c3ccccc3)ccc2[nH]1 (stereo not drawn)	11.8	522		
Cc1ccc(Nc2nnc(Cc3ccncc3)c3ccccc23)cc1Br	18.6	438		
CCNC(=O)Nc1ccc(-c2nc3c(c(N4CCOC[C@@H]4C)n2)CCN(C2COC2)C3)cc1	4.68	520		561
CCOC(=O)[C@@H](N)Cc1ccc(-c2cc(O[C@H](c3ccc(Cl)cc3-n3ccc(C)n3)C(F)(F)F)nc(N)n2)cc1	20.9	506		
CSc1ccc(C(=O)/C=C/c2cc(C)c(OC(C)(C)C(=O)O)c(C)c2)cc1	48.1	571	540	
CCN(C)[S+](=O)([O-])Nc1ccc(F)c(C(=O)c2c[nH]c3ncc(-c4cnc(C5CC5)nc4)cc23)c1F	18.6	502		
CCN(CC)CCCCNc1ncc2cc(-c3cc(OC)cc(OC)c3)c(NC(=O)NC(C)(C)C)nc2n1	23.5	476		
Cc1ncc(NC(=O)c2ccc(CN3CCN(C)CC3)c(C(F)(F)F)c2)cc1Nc1nccc(-c2cccnc2)n1	23.5	493		
CCN(CC)C(=O)C1=CC=C(C=C1)C/2=C/C3(CCNCC3)OC4=CC=CC(=C24)O	20.9	404		
Cc1ccc([C@@H]2O[C@H](CO)[C@@H](O)[C@H](O)[C@H]2O)cc1Cc1ccc(-c2ccc(F)cc2)s1	23.5	521		
CC1(C)C(=O)N(c2ccc(C#N)c(C(F)(F)F)c2)C(=S)N1Cc1ccc(-c2c[nH]nn2)cc1	20.9	483	472	
O=C(Nc1nc2cccc(-c3ccc(CN4CC[S+](=O)([O-])CC4)cc3)n2n1)C1CC1	18.6	535		
C[C@@H]1C[C@H]2[C@@H]3CC\C4=C\C(=O)\C=C/[C@]4(C)[C@@]3(Cl)[C@@H](O)C[C@]2(C)[C@@]1(OC(=O)C5=CC=CO5)C(=O)CCl	37.2	580		
COc1cc(Nc2ncc(F)c(Nc3ccc4c(n3)N(COP(=O)(O)O)C(=O)C(C)(C)O4)n2)cc(OC)c1OC	14.8	512		
C[C@@H]1CCNC(=O)c2cc3ccc(C(=O)Nc4nc5ccccc5n4CCCN(C)C)cc3n21	18.6	553	513	
COc1c(C)c2c(c(O)c1C/C=C(\C)CCC(=O)OCCN1CCOCC1)C(=O)OC2	0.468	429		

Compound	AC50 viability (NCI-H295R [1]) [µM]	area under concentration-response curve (NCI-H295R [2])	area under concentration-response curve (CU-ACC1)	area under concentration-response curve (CU-ACC2)
CC[C@]12\C=C/CN3CC[C@]4([C@@H](N(C)C5=CC(=C(C=C45)[C@]6(C[C@H]7C[C@H](CN(C7)CC8=C6[NH]C9=C8C=CC=C9)C(C)(F)F)C(=O)OC)OC)[C@](O)([C@@H]1OC(C)=O)C(=O)OC)[C@H]23	0.698	527	538	
CC(=O)N1CCN(c2ccc(OC[C@H]3CO[C@](Cn4ccnc4)(c4ccc(Cl)cc4Cl)O3)cc2)CC1	20.9	342		
CN(C)CC[C@H](CSc1ccccc1)Nc1ccc([S+](=O)([O-])NC(=O)c2ccc(N3CCN(Cc4ccccc4-c4ccc(Cl)cc4)CC3)cc2)cc1[N+](=O)[O-]	18.6	535		
O=C(c1ccc(OCCN2CCCCC2)cc1)c1c(-c2ccc(O)cc2)sc2cc(O)ccc12	23.5	557		
CC(C)[C@](O)(c1ccc2cc(OC(F)F)c(OC(F)F)cc2c1)c1c[nH]nn1	23.5	532	492	
CN(C)CC(=O)N1CCC(CC1)C2=CC=C(NC(=O)C3=NC(=C[NH]3)C#N)C(=C2)\C4=C\CCCC4	23.5	553		
CC[C@H](C)[C@@H]([C@@H](CC(=O)N1CCC[C@H]1[C@H](OC)[C@@H](C)C(=O)N[C@@H](Cc1ccccc1)c1nccs1)OC)N(C)C(=O)[C@@H](NC(=O)[C@H](C(C)C)N(C)C)C(C)C	33.2	344		363
COc1cc(Oc2ccnc3cc(OC)c(OC)cc23)ccc1NC(=O)NC(C)c1nccs1 (stereo not drawn)	14.8	540		
CN(C)CCNC(=O)NC[C@H]1CC[C@@H]2[C@H](O1)c1cc(C(F)(F)F)ccc1N[C@H]2c1ccccc1	5.9	437		
Cc1ccc(Sc2ccccc2N2CCNCC2)c(C)c1	20.9	455		
CCN(CC)CCCCNc1ncc2c(n1)N(C)C(=O)N(c1c(Cl)c(OC)cc(OC)c1Cl)C2	16.6	524	520	
Cc1cc(C(=O)N2CCN(c3cccc(Cl)c3)CC2)n(-c2ccccc2)n1	2.95	515		648
Cc1ccc(-c2nn(C(C)(C)CNC(=O)c3ccncc3)c3ncnc(N)c23)cc1	16.6	512	515	
CC(C)(O)CNc1nc(Nc2ccnc(C(F)(F)F)c2)nc(-c2cccc(C(F)(F)F)n2)n1	16.6	417	402	
NCC(=O)Nc1ccc(-n2nc(C(F)(F)F)cc2-c2ccc3c(ccc4ccccc43)c2)cc1	23.5	551		
CN(C)c1ccc(-c2nc3c(N4CCN(CC(=O)Nc5nccs5)CC4)c(Cl)cnc3[nH]2)cc1		600	618	658
O=C1CC[C@H](N2Cc3c(OCc4ccc(CN5CCOCC5)cc4)cccc3C2=O)C(=O)N1		552	517	606
Cc1cn2cc(C(=O)N(C)CCO)cc(N[C@@H]3CCOc4cccc(C)c43)c2n1		581	534	620
O=C(O)CNC(=O)c1ncc(-c2cccc(Cl)c2)cc1O		516	486	568
N[C@@H](CC(=O)N1CCn2c(nnc2C(F)(F)F)C1)Cc1cc(F)c(F)cc1F		555	554	597
CC1(C)CCC(=C(\C1)C2=CC=C(Cl)C=C2)/CN3CCN(CC3)C4=CC(=C(C=C4)C(=O)N[S+]([O-])(=O)C5=CC=C(NCC6CCOCC6)C(=C5)[N+]([O-])=O)OC7=CN=C8[NH]C=CC8=C7		478	511	573
